Measured values published in ChEMBL document CHEMBL3861982, “Three new alkaloids from Veratrum grandiflorum Loes with inhibition activities on Hedgehog pathway” (Bioorg Med Chem Lett, 2016).

Experiment: Inhibition of hedgehog signaling pathway in mouse Shh Light2 cells assessed as inhibition of sonic hedgehog-induced GLI1-mediated transcriptional activity measured after 30 hrs by dual luciferase reporter gene assay
Type: cell-based
Details: Shh Light2, 30 h

C[C@H]1CC[C@@H]2[C@@H](C)[C@H]3[C@H](C[C@H]4[C@@H]5CC=C6C[C@@H](O)CC[C@]6(C)[C@H]5CC[C@]34C)N2C1
IC50: > 25000 nM

CC(=O)O[C@@H]1C[C@H]2[C@@H](CC=C3C[C@@H](O[C@@H]4O[C@H](CO)[C@@H](O)[C@H](O)[C@H]4O)CC[C@@]32C)[C@@H]2CC[C@H]([C@H](C)C3=NC[C@H](C)CC3=O)[C@@]12C
IC50: 1110 nM

CC(=O)O[C@H]1C[C@H]2[C@@H]3CC=C4C[C@@H](O[C@@H]5O[C@H](CO)[C@@H](O)[C@H](O)[C@H]5O)CC[C@]4(C)[C@H]3CC[C@]2(C)[C@H]1[C@H](C)C1=NC[C@H](C)CC1
IC50: > 25000 nM

Cc1c([C@H](C)[C@H]2CC[C@H](C)CN2)ccc2c1C[C@H]1[C@H]2CC=C2C[C@@H](O)CC[C@@]21C
IC50: 630 nM

C/C=C(/C)C(=O)O[C@H]1CC[C@@]2(C)[C@@H]3CC[C@H]4[C@]5(O)[C@@H](O)[C@H](O)[C@H]6[C@@H](CN7C[C@@H](C)CC[C@H]7[C@@]6(C)O)[C@@H]5C[C@@]42O[C@@]13O
IC50: > 25000 nM

CC(=O)O[C@@H]1C[C@H]2[C@@H](CC=C3C[C@@H](O)CC[C@@]32C)[C@@H]2CC[C@H]([C@@](C)(O)C3=NC[C@H](C)CC3)[C@@]12C
IC50: 3110 nM

CC(=O)O[C@@H]1C[C@H]2[C@@H](CC=C3C[C@@H](O[C@@H]4O[C@H](CO)[C@@H](O)[C@H](O)[C@H]4O)CC[C@@]32C)[C@@H]2CC[C@H]([C@@](C)(O)C3=NC[C@H](C)CC3)[C@@]12C
IC50: 2780 nM

CC1=C2C[C@H]3[C@@H](CC=C4C[C@@H](O)CC[C@@]43C)[C@@H]2CC[C@]12O[C@@H]1C[C@H](C)CN[C@H]1[C@H]2C [CYCLOPAMINE]
IC50: 74.1 nM
